# Patent publication US9987299B2, “Methods of improving RNAi in well-differentiated airway epithelia” (University of Iowa Research Foundation, priority 2014, dated 2018)
# Experiments:
# CFTR channel activity = assay: Transepithelial short-circuit current and conductance in HAE; type: cell-based, human; conditions: control epithelia with or without PAF, or PAF and NC1 treated cells; sequential addition of agents
# Human HPRT mRNA [1] = assay: HPRT mRNA silencing by DsiRNA-Transductin in well-differentiated HAE (RT-qPCR); type: cell-based
# Protocol: FIG. 1. […] (a) Well-differentiated HAE cultures grown at the ALI were incubated in adding HPRT-targeting or control NC1 DsiRNA (250 nM) formulated with Transductin containing 0.1 or 0.01 mg LOS (HPRT-targeting DsiRNAs) or 0.1 mg LOS (NC1 DsiRNA). After 4 hours, the apical surface was rinsed and 24 hours later, target RNA levels quantified by RT-qPCR. All mRNA levels were normalized to NC1-treated samples. Mean levels were calculated from three biological replicates, each done in triplicate. ***p<0.001, **p<0.01 (Student's t-test). […] Samples were normalized to NC1-treated cells. ***p<0.001, **p<0.01 (Student's t-test). […] PAFRa was present throughout transfection in cells pre-treated with the reagent. Cells were harvested and RNA quantified 24 hrs later. Samples were normalized to NC1-treated cells. **p<0.01 (Student's t-test).
# FIG. 3. Spiperone improves RNAi responses in DsiRNA transduced cells. HAE were pre-treated with various small molecules at the concentration indicated. The drugs were added to the apical surface and the basolateral media for 6 hours. Both surfaces were then washed and HPRT or NC1 DsiRNA formulated with Transductin added to the apical surface. The cells were washed after 4 hours, and RT-qPCR done on cell lysates harvested 24 hours later.
# Human airway epithelial cells were obtained from trachea and bronchi of lungs removed for organ donation from non-CF individuals. Cells were isolated by enzyme digestion as previously described. Following enzymatic dispersion, cells were seeded at a density of 5×10^5 cells/cm^2 onto collagen-coated, 0.6 cm^2 semi permeable membrane filters (Millipore polycarbonate filters; Millipore Corp., Bedford, Mass.). The cells were maintained at 37° C. in a humidified atmosphere of 5% CO2 air. Twenty-four hours after plating, the apical media was removed and the cells were maintained at an air-liquid interface (ALI) to allow differentiation of the epithelium. The culture medium consisted of 1:1 ratio mix of Dulbecco's modified Eagle's medium (DMEM)/Ham's F12, 5% Ultroser G (Biosepra S A, Cedex, France), 100 U/ml penicillin, 100 μg/ml streptomycin, 1% nonessential amino acids and 0.12 U/ml insulin. Studies were performed on well-differentiated epithelia approximately 4 to 6 weeks after initiation of the ALI cultures conditions. HEp-2 cells were maintained in MEM substituted with 10% fetal bovine serum and 100 U/ml penicillin.
# PAF was purchased from Sigma-Aldrich. The reagent was reconstituted in ethanol and used in the experiment at a concentration of 200 nM or as described in the figures. PAF was added to the transfection mixture at the apical surface as well as to the basolateral media. PAFRa (WEB 2086) was purchased from Sigma-Aldrich. […] The reagent was incubated with the cells throughout the transfection period.
# All the small molecules tested were purchased from Sigma-Aldrich. The chemicals were reconstituted in appropriate solutions as recommended by the manufacturer. The epithelia were pre-treated with drugs for 6 hours at concentrations used in the CMAP study or noted in the published literature. Following drug treatment, the epithelia were transduced with DsiRNA as described above.
# For well-differentiated airway epithelia, transfection was performed mostly according to the manufacturer's protocol. In all cases, the apical surface of epithelia was rinsed twice with PBS before adding the transfection mixture to the apical surface. DsiRNAs were used at a concentration of 250 nM. The mixture was left on the cells for 4 hours after which the medium was removed, the apical surface rinsed with PBS and the cells incubated further for 24 hours. For all experiments, a minimum of 3 biological replicates, in triplicate, were done.
# Total RNA was isolated using SV96 RNA isolation kit (Promega, Madison, Wis.), according to manufacturer's protocol. […]
# Human CFTR mRNA = assay: CFTR mRNA silencing by CFTR DsiRNA-Transductin in well-differentiated HAE (RT-qPCR); type: cell-based; conditions: CFTR DsiRNA with simultaneous PAF treatment or spiperone pre-treatment
# Protocol: (§1) FIG. 4. […] Alternatively, spiperone was applied apically and basolaterally to well-differentiated HAE for 6 hours, and then removed by rinsing before incubation for 4 hours with CFTR-targeting or NC1 DsiRNAs complexed with Transductin. In both cases, 24 hours after transfection, and RNA levels quantified by RT-qPCR. (b) A representative immunoblot from similarly treated wells, but cells were lysed and proteins visualized after immunoprecipitation with anti-CFTR antibody. Alpha-tubulin was used as a loading control. (c) Densitometry readings of immunoblots with results normalized to NC1 treated samples. In all cases, data are from 3 biological replicates and are mean±SD. ***p<0.001, **p<0.01 (Student's t-test).
# For well-differentiated airway epithelia, transfection was performed mostly according to the manufacturer's protocol. […]
# Total RNA was isolated using SV96 RNA isolation kit (Promega, Madison, Wis.), according to manufacturer's protocol. […] One-fifteenth of the cDNA was then amplified and analyzed by using the 5′-nuclease assay in a 7900 Real Time PCR System (Applied Biosystems, Foster city, CA) using primer-probe pairs reaction buffer and Immolase DNA polymerase (Bioline, Taunton, Mass.). […] Absolute quantification of an mRNA target sequence within an unknown sample was determined by reference to a standard curve. […]
# CFTR protein = CFTR protein levels, immunoprecipitation and immunoblot with densitometry in HAE; type: cell-based, human
# Protocol: as §1
# HAE were rinsed with PBS and lysed in RIPA buffer (1% NP-40, 0.5% sodium deoxycholate, 0.1% SDS, 50 mM Tris, protease inhibitors [complete; mini, EDTA-free; Roche Biochemicals, Indianapolis, Ind.]) for 30 minutes at 4° C. The lysate were centrifuged in a table top centrifuge at 14,000 rpm for 20 minutes at 4° C. The supernatant was quantified by BCA protein assay kit (Pierce, Rockford, Ill.). Thirty micrograms of protein per lane was separated on a 10% Tris-HCL Criterion precast gel (Bio-Rad, Hercules, Calif.) for western blot analysis. The protein was transferred to Polyvinylidene difluoride membrane and then was probed with goat anti-RSV antibody purchased from Meridian Life Sciences (Memphis, Tenn.). The membrane was imaged, and then stripped with Restore Western Blot Stripping Buffer (Thermo Scientific, Lafayette, Colo.) for 15 minutes. The membrane was rinsed with Tris-buffered saline-Tween (TBS-T) and blocked in 5% bovine serum albumin (Research Products International Corp, Mt. Prospect, Ill.). The membrane was then reprobed with α-tubulin (Sigma-Aldrich).
# [2] = reference [38]; cited from earlier work
# Human HPRT mRNA [3] = conditions: Transductin alone or combined with enhancers of macropinocytosis; reference [17]; cited from earlier work
compound,measurement,setting,value
O=C(CNc1ccc2ccccc2c1)N/N=C/c1cc(Br)c(O)c(Br)c1O [GlyH-101],cAMP-activated transepithelial short-circuit current (Isc and ΔIsc) and conductance (Gt),CFTR channel activity,decreased both values
O=C(CCCN1CCC2(CC1)C(=O)NCN2c1ccccc1)c1ccc(F)cc1 [Spiperone],spiperone dose-response on silencing,"Human HPRT mRNA [1]; increasing doses, 6 hours pretreatment (FIG. 9)",marginal increases in silencing with increasing doses
same,silencing of HPRT mRNA levels,Human HPRT mRNA [1]; spiperone 10 μM pretreatment before DsiRNA transduction,25%
same,silencing of CFTR mRNA levels,Human CFTR mRNA,approximately 30%
same,CFTR protein levels compared to controls,"CFTR protein; PAF or spiperone and CFTR DsiRNA-Transductin, immunoprecipitation, western blot",reduced CFTR protein levels
same,fully glycosylated CFTR band C,"CFTR protein; densitometry, normalized to NC1 treated samples",significantly decreased
Cc1nnc2n1-c1sc(CCC(=O)N3CCOCC3)cc1C(c1ccccc1Cl)=NC2 [WEB2086],inhibition of HPRT silencing in cells transduced with LOS or PAF,Human HPRT mRNA [1]; 1 μM PAFRa,partially inhibited
same,inhibition of HPRT silencing of LOS- or PAF-assisted transduction,"Human HPRT mRNA [1]; 100 μM PAFRa, pre- or post-treatment",completely inhibited
"CC(C)Cn1c(=O)n(C)c(=O)c2[nH]cnc21 [isobutylmethylxantine (IBMX), isobutylmethylxantine]",cAMP-activated transepithelial short-circuit current (Isc and ΔIsc) and conductance (Gt),CFTR channel activity,increased
CCCCCCCCCCCCCC(=O)O[C@@H]1[C@@H](C)[C@@]2(O)[C@@H](C=C(CO)C[C@]3(O)C(=O)C(C)=C[C@@H]23)[C@@H]2C(C)(C)[C@]12OC(C)=O [phorbol ester],gene silencing in well differentiated HAE with Transductin-DsiRNA plus phorbol ester,Human HPRT mRNA [1]; applicant's unpublished data,better silencing
same,toxicity,[2],toxic and unsuitable for repeated applications or use in vivo
"epidermal growth factor (NSDSECPLSHDGYCLHDGVCMYIEALDKYACNCVVGYIGERCQYRDLKWWELR; Epidermal growth factor; UniProt P01133 971-1023, looked up) [EGF, enhancer of macropinocytosis]","gene silencing in well differentiated HAE with Transductin-DsiRNA, previously observed",Human HPRT mRNA [3],very modest knockdown
